From patent US9227923B2, “Pesticidal carboxamides” (Bayer Intellectual Property GmbH, priority 2009, dated 2016)

Columns and labels:
[1] = system: Tobacco Cutworm (Spodoptera litura) Larvae; test: Test against tobacco cutworm (Spodoptera litura) larvae, leaf dip; type: in vivo; conditions: active compound concentration of 100 ppm, third instar larvae, after 7 days; for pest or weed control at 100 ppm: Spodoptera litura, foliar, 168 h, read-out: insecticidal activity
Outline: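 Sweet potato leaves were dipped in the test solution (DMF solvent, polyoxyethylene alkyl phenyl ether emulsifier), air-dried and offered to ten third-instar larvae per dish at 25 °C, with fresh leaves added on days 2 and 4. Mortality was counted at day 7 and expressed as % insecticidal activity (100% = all dead).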

[2] = system: Cucurbit Leaf Beetle (Aulacophora Femoralis); test: Test against cucurbit leaf beetle (Aulacophora femoralis), leaf dip; type: in vivo; conditions: active compound concentration of 100 ppm, second instar larvae, after 7 days; for pest or weed control at 100 ppm: Aulacophora, foliar, 168 h, read-out: insecticidal activity
Outline: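 Cucumber leaves dipped in compound solution (DMF solvent, polyoxyethylene alkyl phenyl ether emulsifier), air-dried, and placed with five second-instar larvae in cups on sterilized soil at 25° C. Dead larvae counted after 7 days; activity expressed as percent larvae killed.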

[3] = system: Ctenocephalides felis; test: whole plant or invertebrate; type: in vivo; conditions: for activity (mortality in %): application rate of 100 ppm in cattle blood, after 2 days; for mortality at 100 ppm: Ctenocephalides felis, in Bos taurus, 48 h, read-out: activity (mortality in %)
Experimental: (§1) Solvent: dimethyl sulfoxide
Approximately 20 adult unfed (Ctenocepahlides felis) are placed in flea chambers. […] The blood chamber is heated to 37° C. whereas the flea chamber is kept at room temperature.

[4] = system: Lucilia cuprina 1st instar larvae; test: whole plant or invertebrate; type: in vivo; conditions: for activity (percentage of larval mortality): application rate of 100 ppm, after 48 hrs; for mortality at 100 ppm: Lucilia cuprina, 48 h, read-out: activity (percentage of larval mortality)
Experimental: species: Lucilia cuprina 1st instar larvae (age 24 hrs)
solvent: dimethyl sulfoxide
Serial dilutions are made to obtain the desired rates. Approximately 20 Lucilia cuprina 1st instar larvae are transferred into a test tube containing 1 cm^3 of minced horse meat and 0.5 ml aqueous dilution of test compound. After 48 hrs percentage of larval mortality are recorded. 100% efficacy=all larvae are killed, […].

[5] = system: Boophilus microplus; test: Boophilus microplus test (injection); type: in vivo; conditions: for mortality at 0.02 mg: Rhipicephalus microplus, 168 h, read-out: activity (mortality in %; 100% means that all eggs are infertile); for activity (mortality in %; 100% means that all eggs are infertile): application rate of 20 μg/animal, injection, after 7 days
Experimental: as §1
Five adult engorged female ticks (Boophilus microplus) are injected with […] compound solution into the abdomen. Ticks are transferred into replica plates and incubated in a climate chamber for a period of time. Egg deposition of fertile eggs is monitored.
After 7 days mortality in % is determined. 100% means that all eggs are infertile; 0% means that all eggs are fertile. […]

[6] = system: Two-Spotted Spider Mite (Tetranychus Urticae); test: Test against two-spotted spider mite (Tetranychus urticae), spray; type: in vivo; conditions: active compound concentration of 100 ppm; adult mites; after 7 days
Description: Solvent: 3 parts by weight of dimethylformamide
Emulsifier: 1 part by weight of polyoxyethylene alkyl phenyl ether

[7] = system: Musca domestica; test: whole plant or invertebrate; conditions: 48 h, read-out: activity (mortality in %)
Experimental: as §1
Prior to the assay, a piece of kitchen sponge is soaked with a mixture of sugar and compound solution and placed into a container. 10 adults (Musca domestica) are placed into the container and closed with a perforated lid. After 2 days mortality in % is determined 100% means that all the flies have been killed; 0% means that none of the flies have been killed.

| SMILES | insecticidal activity [1] | pest or weed control at 100 ppm [1] | pest or weed control at 100 ppm [2] | mortality at 0.02 mg [5] | mortality at 100 ppm [3] | mortality at 100 ppm [4] | acaricidal activity [6] | also measured |
| --- | --- | --- | --- | --- | --- | --- | --- | --- |
| CCC(=O)NCc1ccc(C(=O)Nc2c(C)cc(C(F)(C(F)(F)F)C(F)(F)C(F)(F)F)cc2CC)cc1 (stereo not drawn) [Compound 5-139] | 100% |  |  |  |  |  |  | insecticidal activity [2]: 100%; activity (mortality in %) [3]: 98% |
| CCc1cc(C(F)(C(F)(F)F)C(F)(F)C(F)(F)F)cc(C)c1NC(=O)c1ccc(CNC(C)=O)c(I)c1 (stereo not drawn) [Compound 5-194] | 100% |  |  |  |  |  |  | activity (percentage of larval mortality) [4]: 95% |
| CCc1cc(C(F)(C(F)(F)F)C(F)(F)F)cc(C)c1NC(=O)c1ccc(-n2cncn2)cc1 [Compound 1-31, N-[2-ethyl-4-(1,1,1,2,3,3,3-heptafluoropropan-2-yl)-6-methylphenyl]-4-(1H-1,2,4-triazol-1-yl)benzamide] |  | 100% | 100% | 100% | 90% | 100% | 100% |  |
| CCc1cc(C(F)(C(F)(F)F)C(F)(F)F)cc(C)c1NC(=O)c1ccc(-n2cncn2)c(NC(=O)OC)c1 [Compound 1-47, Methyl[5-{[2-ethyl-4-(1,1,1,2,3,3,3-heptafluoropropan-2-yl)-6methylphenyl]carbamoyl}-2-(1H-1,2,4-triazol-1-yl)phenyl]carbamate] |  | 100% | 100% | 100% | 90% |  |  |  |
| CCc1cc(C(F)(C(F)(F)F)C(F)(F)F)cc(C)c1NC(=O)c1ccc(CNC(=O)CC2CC2)cn1 [Compound 7-5] | 100% |  |  |  |  |  |  | insecticidal activity [2]: 100%; activity (mortality in %; 100% means that all eggs are infertile) [5]: 95% |
| CCc1cc(C(F)(C(F)(F)F)C(F)(F)F)cc(C)c1NC(=O)c1ccc(-n2cncn2)c(C#N)c1 [Compound 1-49, 3-cyano-N-[2-ethyl-4-(1,1,1,2,3,3,3-heptafluoropropan-2-yl)-6-methylphenyl]-4-(1H-1,2,4-triazol-1-yl)benzamide] |  | 100% | 100% | 100% | 95% | 100% | 100% |  |
| CCc1cc(C(F)(C(F)(F)F)C(F)(F)F)cc(C)c1NC(=O)c1ccc(-n2cncn2)c([N+](=O)[O-])c1 [Compound 1-39, N-[2-ethyl-4-(1,1,1,2,3,3,3-heptafluoropropan-2-yl)-6-methyl-phenyl]-3-nitro-4-(1H-1,2,4-triazol-1-yl)benzamide] |  | 100% |  | 100% | 100% | 100% | 100% | mortality at 100 ppm [7]: 100% |
| O=C(Nc1c(Br)cc(C(F)(C(F)(F)F)C(F)(F)F)cc1Br)c1ccc(-n2cncn2)cc1 [Compound 1-78, N-[2,6-dibromo-4-(1,1,1,2,3,3,3-heptafluoropropan-2-yl)-phenyl]-4-(1H-1,2,4-triazol-1-yl)benzamide] |  | 100% | 100% | 100% | 100% | 100% | 100% | mortality at 100 ppm [7]: 100% |
| CCc1cc(C(F)(C(F)(F)F)C(F)(F)F)cc(C)c1NC(=O)c1ccc(-n2cncn2)c(N)c1 [Compound 1-38, 3-amino-N-[2-ethyl-4-(1,1,1,2,3,3,3-heptafluoropropan-2-yl)-6-methylphenyl]-4-(1H-1,2,4-triazol-1-yl)benzamide] |  | 100% |  | 100% | 100% | 100% |  |  |
| CCc1cc(C(F)(C(F)(F)F)C(F)(F)C(F)(F)F)cc(C)c1NC(=O)c1ccc(CNC(=O)C2CC2)c(F)c1 (stereo not drawn) [Compound 5-146] | 100% |  |  |  |  |  |  | activity (percentage of larval mortality) [4]: 95% |
| CCc1cc(C(F)(C(F)(F)F)C(F)(F)F)cc(C)c1NC(=O)c1ccc(CN2C(=O)c3ccccc3C2=O)cc1 [Compound F-4, 4-[(1,3-dioxo-1,3-dihydro-2H-isoindol-2-yl)methyl]-N-[2-ethyl-4-(1,1,1,2,3,3,3-hepta-fluoropropan-2-yl)-6-methylphenyl]benzamide] |  |  |  | 100% |  | 90% |  |  |
| CCc1cc(C(F)(C(F)(F)F)C(F)(F)F)cc(C)c1NC(=O)c1ccc(C#N)c(C)c1 [Compound I-5, 4-cyano-N[2-ethyl-4-(1,1,1,2,3,3,3-heptafluoropropan-2-yl)-6-methylphenyl]-3-methylbenzamide] |  | 100% | 100% | 100% |  | 100% |  |  |
| CCc1cc(C(F)(C(F)(F)F)C(F)(F)F)cc(C)c1NC(=O)c1ccc(CNC(=O)CC(F)(F)F)c(C)c1 [Compound 5-102] |  | 100% | 100% | 100% |  |  | 100% |  |
| CCc1cc(C(F)(C(F)(F)F)C(F)(F)F)cc(C)c1NC(=O)c1ccc(-n2cncn2)c(CNC(=O)OC(C)(C)C)c1 [Compound 12-1, tert-butyl[5-{[2-ethyl-4-(1,1,1,2,3,3,3-heptafluoropropan-2-yl)-6-methylphenyl]carbamoyl}-2-(1H-1,2,4-triazol-1-yl)benzyl]carbamate] |  | 100% |  | 100% |  |  |  |  |
| CCc1cc(C(F)(C(F)(F)F)C(F)(F)C(F)(F)F)cc(C)c1NC(=O)c1ccc(CNC(=O)C2CC2)c(Br)c1 (stereo not drawn) [Compound 5-159] | 100% |  |  |  |  |  |  | activity (mortality in %) [3]: 98% |
| CCc1cc(C(F)(C(F)(F)F)C(F)(F)F)cc(C)c1NC(=O)c1ccc(C#N)nc1 [Compound J-1] |  |  |  |  |  |  |  | activity (mortality in %; 100% means that all eggs are infertile) [5]: 95% |
| CCc1cc(C(F)(C(F)(F)F)C(F)(F)C(F)(F)F)cc(C)c1NC(=O)c1ccc(CNC(=O)CC(F)(F)F)cc1 (stereo not drawn) [Compound 5-142] | 100% |  |  |  |  |  |  | insecticidal activity [2]: 100%; activity (percentage of larval mortality) [4]: 95% |
| CCc1cc(C(F)(C(F)(F)F)C(F)(F)C(F)(F)F)cc(C)c1NC(=O)c1ccc(CNC(=O)c2cccnc2F)c(F)c1 (stereo not drawn) [Compound 5-174] | 100% |  |  |  |  |  |  | insecticidal activity [2]: 100%; activity (percentage of larval mortality) [4]: 95% |
| CCc1cc(C(F)(C(F)(F)F)C(F)(F)F)cc(C)c1NC(=O)c1ccc(CNC(C)=O)cc1 [Compound 5-28, 4-(acetamidomethyl)-N-[2-ethyl-4-(1,1,1,2,3,3,3-heptafluoro-propan-2-yl)-6-methylphenyl]benzamide] |  | 100% |  | 100% | 100% |  | 100% |  |
| CCc1cc(C(F)(C(F)(F)F)C(F)(F)F)cc(C)c1NC(=O)c1ccc(CNC(=O)c2cccnc2F)c(Cl)c1 [Compound 5-82] | 100% |  |  |  |  |  | 100% | insecticidal activity [2]: 100%; activity (percentage of larval mortality) [4]: 95% |
